What was measured:
[1] = test system: Diabrotica undecimpunctata; assay: Pesticidal test against Diabrotica undecimpunctata, treated filter paper (Test Example 4); format: in vivo, Diabrotica undecimpunctata (southern-corn rootworm); conditions: 50 ppm test liquid (Formulation Example 1), 1 ml on filter paper; 30 to 50 eggs and one germinated corn seed; 25° C.
Description: One germinated seed of corn and 30 to 50 eggs of Diabrotica undecimpunctata (southern-corn rootworm) was placed on the filter paper in the polyethylene cup, which was then kept covered and left in a room at 25° C. On the 6th day after, the number of surviving larvae of Diabrotica undecimpunctata was examined.

[2] = test system: German cockroach; assay: Pesticidal test against German cockroach, treated filter paper with sucrose bait (Test Example 6); format: in vivo; conditions: Blattella germanica, 144 h; 500 ppm test liquid (Formulation Example 5), 0.7 ml on filter paper; two male adults; after 6 days
From the text: Two male adults of German cockroach (Blattalla germanica) were set free in the polyethylene cup, which was then kept covered. After 6 days, their survival was examined to determine the mortality.

[3] = test system: Musca domestics; assay: Pesticidal test against Musca domestics, treated filter paper with sucrose bait (Test Example 5); format: in vivo; conditions: 500 ppm test liquid (Formulation Example 5), 0.7 ml on filter paper, ten female adults, after 24 hours
Description: Ten female adults of Musca domestics (house fly) were set free in the polyethylene cup, which was then kept covered. After 24 hours, their survival was examined to determine the mortality.

[4] = test system: Cullex pipiens pallens; assay: whole plant or invertebrate; conditions: 24 h
Description: In 100 ml of ion-exchanged water, the test liquid had been prepared as described above, was added dropwise in an amount of 0.7 ml (the concentration of active ingredient was 3.5 ppm). Twenty final-instar larvae of Cullex pipiens pallens (common mosquito) were set free in the solution. After 1 days, their survival was examined to determine the mortality.

Row | Compound | melting point [°C] | number of surviving pests on the 6th day after [1] | mortality at 500 ppm [2] [%] | mortality at 500 ppm [3] [%] | mortality at 3.5 µg/mL [4] [%]
1 | CCC(C#N)(C#N)Cc1ccc(Cl)cc1 | 70.9 | – | – | – | –
2 | C=CCC(C#N)(C#N)C(c1ccc(Cl)cc1)C(C)C (centres unmarked) [Compound 3, 2-allyl-2-(1-(4-chlorophenyl)-2-methylpropyl)malononitrile] | – | 0 | 100 | 100 | 100
3 | C=CCCC(C#N)(C#N)Cc1ccc(Cl)cc1 [Compound 4, 2-(3-butenyl)-2-(4-chlorobenzyl)malononitrile] | – | 0 | 100 | 100 | 100
4 | C=CCCC(C#N)(C#N)C(C)c1ccc(Cl)cc1 (centres unmarked) [Compound 10, 2-(3-butenyl)-2-(1-(4-chlorophenyl)ethyl)malononitrile] | – | 0 | 100 | 100 | 100
5 | C=CCC(C#N)(C#N)Cc1ccc(OC(F)(F)F)cc1 [Compound 11, 2-allyl-2-(4-(trifluoromethoxy)benzyl)malononitrile] | – | 0 | 100 | 100 | 100
6 | C=CCC(C#N)(C#N)Cc1ccc(C#N)cc1 [Compound 14, 2-allyl-2-(4-cyanobenzyl)malononitrile] | 81.9 | – | – | – | –
7 | C=CCC(C#N)(C#N)C(C)c1ccc(Cl)cc1 (centres unmarked) [Compound 74, 2-allyl-2-(1-(4-chlorophenyl)ethyl)malononitrile] | – | 0 | 100 | 100 | 100
8 | C=CCC(C#N)(C#N)Cc1ccc(C)cc1 [Compound 77, 2-allyl-2-(4-methylbenzyl)malononitrile] | 74.5 | – | – | – | –

More lines, main results first:

Row | melting point [°C] | Compound | number of surviving pests on the 6th day after [1] | mortality at 500 ppm [2] [%] | mortality at 500 ppm [3] [%] | mortality at 3.5 µg/mL [4] [%]
9 | 94.2 | C=CCC(C#N)(C#N)Cc1ccc([N+](=O)[O-])cc1 [Compound 50, 2-allyl-2-(4-nitrobenzyl)malononitrile] | – | – | – | –
10 | 78.2 | C=CCC(C#N)(C#N)Cc1c(F)c(F)c(F)c(F)c1F [Compound 62, 2-allyl-2-(2,3,4,5,6-pentafluorobenzyl)malononitrile] | – | – | – | –
11 | 44.8 | CC/C=C\CCC(C#N)(C#N)Cc1ccc(Cl)cc1 [Compound 73, 2-(4-chlorobenzyl)-2-((Z)-3-hexenyl)malononitrile] | – | – | – | –

— patent US20040142821A1, “Pesticide composition comprising malononitrile compounds” (priority 2001, published 2004)
